Experimental data taken from patent publication US20190247353A1, “ACNE STRAIN-SELECTIVE ANTIBACTERIAL AGENT” (MOMOTANI JUNTENKAN CO., LTD., priority 2016, published 2019).

Test system: HL043PA1 strain (RT5 strain)
Experiment: Time course of viable cell count, HL043PA1 strain
Format: cell-based, Propionibacterium acnes
Conditions: 15 μg/mL, pH 6.0, anaerobic 37° C., 0 to 44 hours (FIG. 1b)
Method: To each strain suspension (pH 6.0, 5.0×10^5 cfu/mL) of the acne bacterium strain (HL053PA1 strain (RT4 strain), HL043PA1 strain (RT5 strain), and HL110PA3 strain (RT6 strain)) prepared in the same manner as in Example 1, pentadecanoic acid (C15:0) was added to mix together (final concentration of a fatty acid of 15 μg/mL, and final concentration of solvent DMSO of 0.5%), and each the mixture was statically cultured at 37° C. in a nitrogen atmosphere (anaerobic condition). Using a sample to which only DMSO was added at 0.5% (final concentration) as a control, it was confirmed that the influence of the solvent on the growth of each strain could be neglected.
The viable cell count in the culture solution was measured at 0, 2, 8, 18, 30 and 44 hours after the start of culturing. A viable cell count (cfu/mL) was calculated from the number of emerged colonies after culturing part of the culture solution on a GAM broth agar plate under anaerobic conditions for 3 days (FIG. 1).

CCCCCCCCCCCCCCC(=O)O [Pentadecanoic acid (C15:0), Pentadecanoic acid]
Growth of the HL043PA1 strain (RT5 strain), viable cell count time course: suppressed first bacteriostatically and then bactericidally after 10 hours from the start of culturing
